Measurements from EP0714912B1, “GMP-140 ligand” (THE BOARD OF REGENTS OF THE UNIVERSITY OF OKLAHOMA, priority 1990, dated 1992).

Experiments:
immobilized GMP-140 [1] = assay: ELISA (avidin detection) of binding of biotinylated monoclonal antibodies G1, G2, G3 to immobilized GMP-140 in presence of soluble peptide; set-up: species or system human; settings: for % Binding of Biotinylated MAbs G1: peptide 1.5 mM added to biotinylated mAb G1 (2.5 micrograms/ml) before addition to immobilized GMP-140; for % Binding of Biotinylated MAbs G2: peptide 1.5 mM added to biotinylated mAb G2 (2.5 micrograms/ml) before addition to immobilized GMP-140; for % Binding of Biotinylated MAbs G3: peptide 1.5 mM added to biotinylated mAb G3 (2.5 micrograms/ml) before addition to immobilized GMP-140
Experimental: Based on competitive ELISAs with the purified protein, G1, G2, and G3 each recognize distinct or only partially overlapping epitopes. 1.5 mM peptide was added to biotinylated mAb at a concentration of 2.5 micrograms/ml, which were then added to the wells containing GMP-140, as described in example 1. Binding was measured by an ELISA with an avidin detection system.
The monoclonal antibodies were biotinylated as follows: to 0.5 ml of purified IgG antibody (1 mg/ml in PBS, pH 7.4) was added 50 µl of 3.2 mM N-hydroxysuccinimide biotin in dimethyl sulfoxide and 50 µl of 1 M NaHCO3. After a 2 hour incubation at room temperature in the dark, the reaction was stopped with 50 µl of 1 M NH4Cl. The biotinylated antibody was then separated from other components by gel filtration on a PD-10 column equilibrated in PBS. The ELISA was performed as follows; all steps were performed at room temperature.
Biotinylated antibody (2.5 µg/ml) with or without 1.5 mM peptide was incubated with wells coated with GMP-140 as described in example 1. After a 2 hour incubation, the antibody was removed, the wells were washed, and 0.1 ml of horseradish peroxidase-conjugated stepavidin (Pierce), diluted 1:1,000 in HBSS/HSA, was added for 30 min. The wells were then washed and 0.1 ml of peroxidase substrate (Pierce) was added for 15 min. The color reaction was read at 405 nm.

immobilized GMP-140 [2] = assay: Neutrophil adhesion to purified GMP-140 immobilized on plastic wells (myeloperoxidase read-out); format: cell-based, human; settings: for inhibition of neutrophil adhesion to immobilized GMP-140 by peptides: peptide screen, result in words; for inhibition of binding of neutrophils to immobilized GMP-140, dependence on concentration: 0.1 mM to 1.5 mM peptide, Figure 2
Description: Peptides were screened for their ability to inhibit neutrophil adhesion to purified GMP-140 immobilized on plastic wells, using the assay described by Geng, et al., Nature 343, 757-760 (1990).
Human neutrophils are isolated from heparinized whole blood by density gradient centrifugation on Mono-Poly resolving media, Flow Laboratories. Neutrophil suspensions are greater than 98% pure and greater than 95% viable by trypan blue exclusion. For adhesion assays, neutrophils are suspended at a concentration of 2 x 10^6 cells/ml in Hanks' balanced salt solution containing 1.26 mM Ca^2+ and 0.81 mM Mg^2+ (HBSS, Gibco) with 5 mg/ml human serum albumin (HBSS/HSA). Adhesion assays are conducted in triplicate in 96-well microtiter plates, Corning, incubated at 4°C overnight with 50 microliters of various protein solutions.
GMP-140 is plated at 5 micrograms/ml and the control proteins: human serum albumin (Alb), platelet glycoprotein IIb/IIIa (IIb), von Willebrand factor (vWF), fibrinogen (FIB), thrombomodulin (TM), gelatin (GEL) or human serum (HS), are added at 50 micrograms/ml. All wells are blocked for 2 h at 22°C with 300 microliters HBSS containing 10 mg/ml HSA, then washed three times with HBSS containing 0.1% Tween-20 and once with HBSS. Cells (2 x 10^5 per well were added to the wells and incubated at 22°C for 20 min. The wells were then filled with HBSS/HSA, sealed with acetate tape (Dynatech), and centrifuged inverted at 150 g for 5 min. After discarding nonadherent cells and supernates, the contents of each well are solubilized with 200 microliters 0.5% hexadecyltrimethylammonium bromide, Sigma, in 50 mM potassium phosphate, pH 6.0, and assayed for myeloperoxidase activity, Ley, et al., Blood 73, 1324-1330 (1989). The number of cells bound was derived from a standard curve of myeloperoxidase activity versus numbers of cells. Under all assay conditions, the cells released less than 5% of total myeloperoxidase and lactate dehydrogenase. Results are presented in Table I. 100% adhesion is that seen in the presence of the C-terminal peptide (amino acid residues 761-777 of GMP-140) as a negative control; this value is the same as controls in which neither peptide nor antibody is added to the cells. Inhibition is read as a lower percent adhesion, so that a value of 5% means that 95% of the specific adhesion was inhibited.
Peptides from the lectin-like domain of GMP-140 were assayed for their ability to inhibit adhesion of neutrophils to immobilized GMP-140 in the assay described in example 1. Concentrations tested ranged from 0.1 mM to 1.5 mM.

neutrophils [3] = assay: Adhesion of neutrophils to microtiter wells coated with lectin peptide 19-34-KLH conjugate or GMP-140; format: cell-based, human; settings: peptide 1.5 mM; Figure 3
Experimental: GMP-140 is plated at 5 micrograms/ml and the control proteins: human serum albumin (Alb), platelet glycoprotein IIb/IIIa (IIb), von Willebrand factor (vWF), fibrinogen (FIB), thrombomodulin (TM), gelatin (GEL) or human serum (HS), are added at 50 micrograms/ml. All wells are blocked for 2 h at 22°C with 300 microliters HBSS containing 10 mg/ml HSA, then washed three times with HBSS containing 0.1% Tween-20 and once with HBSS. […] Inhibition is read as a lower percent adhesion, so that a value of 5% means that 95% of the specific adhesion was inhibited.
Lectin peptide 19-34 was conjugated to the carrier protein keyhole limpet hemocyanin by its N-terminal cysteine by standard procedures such as the commercial Imject kit from Pierce Chemicals. This peptide-KLH conjugate was then tested in the assay described in example 1 and the numbers of cells bound determined. […]

neutrophils [4] = assay: Specific binding of [125I]GMP-140 to neutrophils (enzyme-treated cells or with competitors); set-up: species or system human; settings: 6.5 µM of conjugate, 65 µM of oligosaccharide; coupled to bovine serum albumin at about 10:1

Row | Substance | % Binding of Biotinylated MAbs G1 (immobilized GMP-140 [1]) [%] | % Binding of Biotinylated MAbs G2 (immobilized GMP-140 [1]) [%] | % Binding of Biotinylated MAbs G3 (immobilized GMP-140 [1]) [%] | also measured
1 | EGF 145-158: synthetic peptide, amino acids 145-158 of the EGF domain of GMP-140 (YPGFYGPECEYVRE; UniProt P16109 186-199, looked up, fragment) | 94 | 92 | 108 | 
2 | LECTIN 19-30: synthetic peptide, amino acids 19-30 of the lectin domain of GMP-140 (CQNRYTDLVAIQ; UniProt P16109 60-71, looked up, fragment) |  |  | 54 | 
3 | LECTIN 91-108: synthetic peptide, amino acids 91-108 of the lectin domain of GMP-140 (VEIYIKSPSAPGKWNDEH; UniProt P16109 132-149, looked up, fragment) | 97 | 93 | 96 | 
4 | REPEATS 544-556: control peptide from one of the consensus repeats of GMP-140, amino acids 544-556 | 107 | 96 | 111 | 
5 | amino acids 23-30: peptide from the GMP-140 lectin domain, amino acids 23-30 (YTDLVAIQ; UniProt P16109 64-71, looked up, fragment) |  |  |  | inhibition of binding of neutrophils to immobilized GMP-140, dependence on concentration (immobilized GMP-140 [2]): inhibited binding in a dose-dependent manner
6 | amino acids 54-63: peptide from the GMP-140 lectin domain, amino acids 54-63 (RKNNKTWTWV; UniProt P16109 95-104, looked up, fragment) |  |  |  | inhibition of binding of neutrophils to immobilized GMP-140, dependence on concentration (immobilized GMP-140 [2]): inhibited binding in a dose-dependent manner
7 | amino acids 66-78: overlapping peptide of amino acids 66-78 of the GMP-140 lectin domain (KKALTNEAENWAD; UniProt P16109 107-119, looked up, fragment) |  |  |  | inhibition of binding of neutrophils to immobilized GMP-140, dependence on concentration (immobilized GMP-140 [2]): inhibited binding in a dose-dependent manner; inhibition of neutrophil adhesion to immobilized GMP-140 by peptides (immobilized GMP-140 [2]): inhibited adhesion; inhibition of neutrophil adhesion to immobilized GMP-140 by peptides (immobilized GMP-140 [2]; listed as amino acids 66 to 78): very active
8 | amino acids 73-83: peptide from the GMP-140 lectin domain, amino acids 73-83 (AENWADNEPNN; UniProt P16109 114-124, looked up, fragment) |  |  |  | inhibition of binding of neutrophils to immobilized GMP-140, dependence on concentration (immobilized GMP-140 [2]): inhibited binding in a dose-dependent manner
9 | sialyl Le^x |  |  |  | inhibition of GMP-140 binding by multivalent neoglycoconjugates (neutrophils [4]): failed to inhibit binding

Continued, in another order:

Row | % Binding of Biotinylated MAbs G1 (immobilized GMP-140 [1]) [%] | % Binding of Biotinylated MAbs G2 (immobilized GMP-140 [1]) [%] | % Binding of Biotinylated MAbs G3 (immobilized GMP-140 [1]) [%] | Substance | also measured
10 | 100 | 100 | 100 | C-TERMINUS 761-777: C-terminal peptide (amino acid residues 761-777 of GMP-140) as a negative control (KDDGKCPLNPHSHLGTY; UniProt P16109 802-818, looked up, fragment) [reference compound] | 
11 | 107 | 92 | 104 | EGF 128-132: synthetic peptide, amino acids 128-132 of the EGF domain of GMP-140 (SKQGE; UniProt P16109 169-173, looked up, fragment) | 
12 | 97 | 104 | 109 | EGF 134-141: synthetic peptide, amino acids 134-141 of the EGF domain of GMP-140 (LETIGNYT; UniProt P16109 175-182, looked up, fragment) | 
13 | 23 | 26 | 24 | LECTIN 19-34: synthetic peptide, amino acids 19-34 of the lectin domain of GMP-140 (CQNRYTDLVAIQNKNE; UniProt P16109 60-75, looked up, fragment) | inhibition of neutrophil adhesion to immobilized GMP-140 by peptides (immobilized GMP-140 [2]): inhibited adhesion; competition by fluid-phase competitor for neutrophil adhesion to immobilized lectin peptide 19-34-KLH conjugate (neutrophils [3]): compete for adhesion
14 | 106 | 125 | 104 | LECTIN 54-72: synthetic peptide, amino acids 54-72 of the lectin domain of GMP-140 (RKNNKTWTWVGTKKALTNE; UniProt P16109 95-113, looked up, fragment) | inhibition of neutrophil adhesion to immobilized GMP-140 by peptides (immobilized GMP-140 [2]): inhibited adhesion
15 | 95 | 99 | 94 | LECTIN 73-89: synthetic peptide, amino acids 73-89 of the lectin domain of GMP-140 (AENWADNEPNNKRNNED; UniProt P16109 114-130, looked up, fragment) | inhibition of neutrophil adhesion to immobilized GMP-140 by peptides (immobilized GMP-140 [2]): inhibited adhesion
16 | 98 | 100 | 108 | LECTIN 110-116: synthetic peptide, amino acids 110-116 of the lectin domain of GMP-140 (LKKKHAL; UniProt P16109 151-157, looked up, fragment) | 
17 | 92 | 92 | 104 | LECTIN/EGF 118-126: synthetic peptide, amino acids 118-126 of GMP-140 (lectin/EGF domains) (YTASCQDMS; UniProt P16109 159-167, looked up, fragment) | 
18 | 100 | 119 | 104 | TRANSMEMBRANE 755-761: control peptide from the transmembrane region of GMP-140, amino acids 755-761 (RKRFRQK; UniProt P16109 796-802, looked up, fragment) | 
